Test results published in US20080103141A1, “New compounds” (Biovitrum, priority 2006, published 2008).

Biological target: T1, human GPR119 receptor (Homo sapiens, UniProt Q8TDV5)
T1 construct: expressed in transfected cells
T1 sequence (Q8TDV5 1-335): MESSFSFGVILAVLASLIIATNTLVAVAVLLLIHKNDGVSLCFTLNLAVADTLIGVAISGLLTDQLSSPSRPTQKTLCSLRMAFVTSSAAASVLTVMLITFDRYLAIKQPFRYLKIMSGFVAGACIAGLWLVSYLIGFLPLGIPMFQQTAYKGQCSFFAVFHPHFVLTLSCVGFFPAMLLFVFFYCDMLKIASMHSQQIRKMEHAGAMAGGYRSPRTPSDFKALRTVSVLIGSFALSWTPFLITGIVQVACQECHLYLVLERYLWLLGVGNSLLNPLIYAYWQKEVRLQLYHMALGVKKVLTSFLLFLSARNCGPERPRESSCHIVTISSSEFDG
Experiment: Human GPR119 activity assay (cAMP HTRF in HEK293-hGPR119 cells)
Format: cell-based
Conditions: stimulation of cAMP in HEK293 cells stably expressing human GPR119, 20 min at room temperature, read-out: Agonist potency at the human GPR119, EC50
Experimental: Human GPR119 Activity Assay
Agonists to the human GPR119 receptor were characterized by measuring human GPR119 receptor-mediated stimulation of cyclic AMP (cAMP) in HEK 293 cells expressing the human GPR119 receptor.
Briefly, cAMP content was determined using a cAMP kit based on HTRF technology (Homogeneous Time-Resolved Fluorescence, Cisbio Cat. no. 62AM2PEC). HEK293 cells stably expressing the human GPR119 receptor (HEK293-hGPR119 cells) were cultured in DMEM (Gibco # 31966-021) supplemented with 10% Bovine Calf Serum (Hyclone # SH30072.03), and, 500 μg/mL Hygromycin B (Roche Diagnostics 843555). At 80% confluency, cells were detached using Trypsine and aliquoted at a density of 5×10^6 cells/mL in freezing medium (DMEM (Gibco # 31966-021), 20% BCS (Hyclone # SH30072.03), 10% DMSO (Sigma #D2650) and stored at −135° C. On the experimental day, HEK293-hGPR119 cells were thawn and diluted to 0.4×10^6 cells/mL in assay buffer (1×HBSS (Gibco Cat. no. 14025-049), 20 mM Hepes (Gibco Cat. no. 15630-056), 0.1% BSA, pH 7.4) and incubated with test substances for 20 min at room temperature. After addition of HTRF reagents diluted in lysis buffer, the 96- or 384-well plates were incubated 1 hour, followed by measuring the fluorescence ratio at 665 nm/620 nm. Test substances was diluted in compound buffer (1×HBSS (Gibco Cat. no. 14025-049), 20 mM Hepes (Gibco Cat. no. 15630-056), 0.1% BSA, 2 mM IBMX (Sigma-Aldrich Cat. No. 17018, pH 7.4). The potency of the agonist was quantified by determine the concentration that cause 50% activation of hGPR119 evoked increase in cAMP, EC50.

| EC50 | Structure (SMILES) |
| --- | --- |
| 14 nM | CC(C)(C)OC(=O)N1CCC(COc2ncc(-c3ccc(S(C)(=O)=O)cc3)cn2)CC1 [EXAMPLE A2, tert-Butyl 4-[({5-[4-(methylsulfonyl)phenyl]pyrimidin-2-yl}oxy)methyl]piperidine-1-carboxylate] |
| 453 nM | CC(C)(C)OC(=O)N1CCC(NCc2cnc(-c3ccc(S(C)(=O)=O)cc3)nc2)CC1 [EXAMPLE B1, tert-Butyl 4-[({2-[4-(methylsulfonyl)phenyl]pyrimidin-5-yl}methyl)amino]piperidine-1-carboxylate] |

| Structure (SMILES) | EC50 |
| --- | --- |
| CC(C)(C)OC(=O)N1CCC(CNc2ncc(-c3ccc(S(C)(=O)=O)cc3)cn2)CC1 [EXAMPLE A22, tert-Butyl 4-[({5-[4-(methylsulfonyl)phenyl]pyrimidin-2-yl}amino)methyl]piperidine-1-carboxylate] | 55 nM |
